Consider 27 molecules from patent publication US10112937B2, “P2X7 modulators and methods of use” (Janssen Pharmaceutica NV, priority 2013, dated 2018).

The target of one assay is human P2X7 (Homo sapiens (Human), UniProt Q99572). Briefly: P2X7 antagonism in human PBMCs (IL-1β release after LPS + Bz-ATP, ELISA). Type of assay: cell-based. Particulars: 10 μM test compound, human PBMCs, LPS + Bz-ATP.
Sequence of human P2X7 (Q99572 whole entry): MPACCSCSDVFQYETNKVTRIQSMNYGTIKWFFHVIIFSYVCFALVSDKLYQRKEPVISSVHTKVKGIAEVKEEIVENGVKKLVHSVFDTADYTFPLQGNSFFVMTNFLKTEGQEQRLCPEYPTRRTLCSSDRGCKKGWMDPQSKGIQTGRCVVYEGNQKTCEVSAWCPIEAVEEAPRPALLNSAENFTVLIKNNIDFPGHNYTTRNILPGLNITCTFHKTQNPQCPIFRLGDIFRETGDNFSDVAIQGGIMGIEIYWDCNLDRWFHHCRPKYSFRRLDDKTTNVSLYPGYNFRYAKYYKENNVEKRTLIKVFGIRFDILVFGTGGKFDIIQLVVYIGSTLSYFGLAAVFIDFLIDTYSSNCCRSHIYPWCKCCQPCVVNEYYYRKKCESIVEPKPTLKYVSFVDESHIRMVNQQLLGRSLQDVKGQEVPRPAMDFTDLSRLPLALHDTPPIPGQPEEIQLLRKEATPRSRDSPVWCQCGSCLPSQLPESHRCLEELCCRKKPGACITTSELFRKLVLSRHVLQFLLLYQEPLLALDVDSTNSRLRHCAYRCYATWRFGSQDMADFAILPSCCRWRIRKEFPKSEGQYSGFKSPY
With `CCn1ccc(-n2nnc3c2C[C@H](C)N(C(=O)c2ccnc(C(F)(F)F)c2Cl)C3)n1` [Example 410, (S)-(3-chloro-2-(trifluoromethyl)pyridin-4-yl)(1-(1-ethyl-1H-pyrazol-3-yl)-6-methyl-6,7-dihydro-1H-[1,2,3]triazolo[4,5-c]pyridin-5(4H)-yl)methanone], the “PBMC 10 μM (% control)” value was −1.5 % control.

With `C[C@H]1Cc2c(nnn2-c2ccsc2)CN1C(=O)c1cccc(C(F)(F)F)c1Cl` [Example 420, (S)-(2-chloro-3-(trifluoromethyl)phenyl)(6-methyl-1-(thiophen-3-yl)-6,7-dihydro-1H-[1,2,3]triazolo[4,5-c]pyridin-5(4H)-yl)methanone], the “PBMC 10 μM (% control)” value amounted to 0.0 % control.

Consider `CC(C)n1ccc(-n2nnc3c2CCN(C(=O)c2ccnc(C(F)(F)F)c2Cl)[C@H]3C)n1` [Example 417, (S)-(3-chloro-2-(trifluoromethyl)pyridin-4-yl)(1-(1-isopropyl-1H-pyrazol-3-yl)-4-methyl-6,7-dihydro-1H-[1,2,3]triazolo[4,5-c]pyridin-5(4H)-yl)methanone], for which the “PBMC 10 μM (% control)” value stood at 112.2 % control.

`CCn1ccc(-n2nnc3c2C[C@H](C)N(C(=O)c2cccc(C(F)(F)F)c2Cl)C3)n1` [Example 404, (S)-(2-chloro-3-(trifluoromethyl)phenyl)(1-(1-ethyl-1H-pyrazol-3-yl)-6-methyl-6,7-dihydro-1H-[1,2,3]triazolo[4,5-c]pyridin-5(4H)-yl)methanone]: the “PBMC 10 μM (% control)” value is listed as −3.1 % control.

Still in this assay, the particulars now being: human PBMCs, test compound 1 μM.
With `O=C(c1cccc(C(F)(F)F)c1Cl)N1CCc2c(-c3ccccc3)n[nH]c2C1` [Example 99, (2-Chloro-3-(trifluoromethyl)phenyl)(3-phenyl-4,5-dihydro-1H-pyrazolo[3,4-c]pyridin-6(7H)-yl)methanone], the “PBMC 1 μM (% control)” value worked out at 7.0 % control.

Turning to `O=C(c1cccc(C(F)(F)F)c1Cl)N1C=Cc2c(ncn2-c2cnccn2)C1` [Example 54, 5-{[2-Chloro-3-(trifluoromethyl)phenyl]carbonyl}-1-pyrazin-2-yl-4,5-dihydro-1H-imidazo[4,5-c]pyridine], the “PBMC 1 μM (% control)” value worked out at 8.6 % control.

The assay is the same for the next values; noted with them: human PBMCs, test compound 10 μM.
In the case of `CC1Cc2c(nnn2-c2cc[nH]n2)CN1C(=O)c1cccc(C(F)(F)F)c1Cl` (stereo not shown) [Example 210, (2-chloro-3-(trifluoromethyl)phenyl)(6-methyl-1-(1H-pyrazol-3-yl)-6,7-dihydro-1H-[1,2,3]triazolo[4,5-c]pyridin-5(4H)-yl)methanone], the “PBMC 10 μM (% control)” value is on record as 0.8 % control.

Regarding `Cc1ccnc(-n2nnc3c2CCN(C(=O)c2cccc(Cl)c2Cl)[C@@H]3C)n1` (single isomer, unassigned) [Example 391, (R*)-(2,3-dichlorophenyl)(4-methyl-1-(4-methylpyrimidin-2-yl)-6,7-dihydro-1H-[1,2,3]triazolo[4,5-c]pyridin-5(4H)-yl)methanone], the “PBMC 10 μM (% control)” value came to 112.1 % control.

As to `Cc1cccc(-n2nnc3c2CCN(C(=O)c2cccc(C(F)(F)F)c2Cl)[C@H]3C)n1` (single isomer, unassigned) [Example 227, (S*)-(2-chloro-3-(trifluoromethyl)phenyl)(4-methyl-1-(6-methylpyridin-2-yl)-6,7-dihydro-1H-[1,2,3]triazolo[4,5-c]pyridin-5(4H)-yl)methanone], the “PBMC 10 μM (% control)” value is listed as −0.4 % control.

In the case of `Cc1cc(C)nc(-n2nnc3c2CCN(C(=O)c2cccc(Cl)c2Cl)C3C)c1` (stereo not shown) [Example 231, (2,3-dichlorophenyl)(1-(4,6-dimethylpyridin-2-yl)-4-methyl-6,7-dihydro-1H-[1,2,3]triazolo[4,5-c]pyridin-5(4H)-yl)methanone], the “PBMC 10 μM (% control)” value was −4.8 % control.

On to `CC1Cc2c(-c3ccnn3C)nn(C)c2CN1C(=O)c1cccc(C(F)(F)F)c1Cl` (stereo not shown) [Example 266, (2-chloro-3-(trifluoromethyl)phenyl)(1,5-dimethyl-3-(1-methyl-1H-pyrazol-5-yl)-4,5-dihydro-1H-pyrazolo[3,4-c]pyridin-6(7H)-yl)methanone], for which the “PBMC 10 μM (% control)” value amounted to 5.8 % control.

For `Cc1cccnc1-n1nnc2c1CCN(C(=O)c1cccc(C(F)(F)F)c1Cl)C2C` (stereo not shown) [Example 259, (2-Chloro-3-(trifluoromethyl)phenyl)(4-methyl-1-(3-methylpyridin-2-yl)-6,7-dihydro-1H-[1,2,3]triazolo[4,5-c]pyridin-5(4H)-yl)methanone], the “PBMC 10 μM (% control)” value is recorded as −3.5 % control.

Turning to `Cc1ccnc(-n2nnc3c2CCN(C(=O)c2ccnc(C(F)(F)F)c2Cl)[C@@H]3C)c1` (single isomer, unassigned) [Example 359, (R*)-(3-chloro-2-(trifluoromethyl)pyridin-4-yl)(4-methyl-1-(4-methylpyridin-2-yl)-6,7-dihydro-1H-[1,2,3]triazolo[4,5-c]pyridin-5(4H)-yl)methanone], the “PBMC 10 μM (% control)” value is on record as −8.2 % control.

Consider `CCc1nc2c(n1-c1ccccc1)CCN(C(=O)c1cccc(C(F)(F)F)c1Cl)C2C` (stereo not shown) [Example 184, (2-Chloro-3-(trifluoromethyl)phenyl)(2-ethyl-4-methyl-1-phenyl-6,7-dihydro-1H-imidazo[4,5-c]pyridin-5(4H)-yl)methanone], for which the “PBMC 10 μM (% control)” value is given as −0.7 % control.

Take `Cc1ccc(-n2nnc3c2CCN(C(=O)c2cccc(C(F)(F)F)c2Cl)[C@@H]3C)nc1` (single isomer, unassigned) [Example 255, (R*)-(2-chloro-3-(trifluoromethyl)phenyl)(4-methyl-1-(5-methylpyridin-2-yl)-6,7-dihydro-1H-[1,2,3]triazolo[4,5-c]pyridin-5(4H)-yl)methanone]: the “PBMC 10 μM (% control)” value was −5.5 % control.

With `Cc1nc2c(n1-c1ccccc1)CCN(C(=O)c1cccc(C(F)(F)F)c1Cl)C2` [Example 37, (2-Chloro-3-(trifluoromethyl)phenyl)(2-methyl-1-phenyl-6,7-dihydro-1H-imidazo[4,5-c]pyridin-5(4H)-yl)methanone], the “PBMC 10 μM (% control)” value was −9.1 % control.

With `CC1Cc2c(nnn2-c2ncc(F)cn2)CN1C(=O)c1ccc(Cl)c(F)c1Cl` (stereo not shown) [Example 216, 5-[(2,4-Dichloro-3-fluorophenyl)carbonyl]-1-(5-fluoropyrimidin-2-yl)-6-methyl-4,5,6,7-tetrahydro-1H-[1,2,3]triazolo[4,5-c]pyridine], the “PBMC 10 μM (% control)” value amounted to 0.6 % control.

As for `O=C(c1cccc(C(F)(F)F)c1Cl)N1CCc2c(ncn2-c2ccc(F)cn2)C1` [Example 315, (2-chloro-3-(trifluoromethyl)phenyl)(1-(5-fluoropyridin-2-yl)-6,7-dihydro-1H-imidazo[4,5-c]pyridin-5(4H)-yl)methanone], the “PBMC 10 μM (% control)” value is listed as 8.8 % control.

As to `COCCn1ccc(-n2nnc3c2CCN(C(=O)c2cccc(C(F)(F)F)c2Cl)[C@H]3C)n1` (single isomer, unassigned) [Example 249, (S*)-(2-Chloro-3-(trifluoromethyl)phenyl)(1-(1-(2-methoxyethyl)-1H-pyrazol-3-yl)-4-methyl-6,7-dihydro-1H-[1,2,3]triazolo[4,5-c]pyridin-5(4H)-yl)methanone], the “PBMC 10 μM (% control)” value was found to be 5.1 % control.

As to `CC1c2nnn(-c3ncccn3)c2CCN1C(=O)c1cccc(C(F)(F)F)c1Cl` (single isomer, unassigned) [Example 88, (4R*)-5-{[2-Chloro-3-(trifluoromethyl)phenyl]carbonyl}-4-methyl-1-pyrimidin-2-yl-4,5,6,7-tetrahydro-1H-[1,2,3]triazolo[4,5-c]pyridine], the “PBMC 10 μM (% control)” value stood at 18.2 % control.

As to `CC1c2nnn(-c3cnccn3)c2CCN1C(=O)c1cccc(C(F)(F)F)c1F` (stereo not shown) [Example 273, (2-fluoro-3-(trifluoromethyl)phenyl)(4-methyl-1-(pyrazin-2-yl)-6,7-dihydro-1H-[1,2,3]triazolo[4,5-c]pyridin-5(4H)-yl)methanone], the “PBMC 10 μM (% control)” value was −2.1 % control.

Take `Cc1cccc(-n2nnc3c2CCN(C(=O)c2cccc(Cl)c2Cl)C3C)n1` (stereo not shown) [Example 233, (2,3-dichlorophenyl)(4-methyl-1-(6-methylpyridin-2-yl)-6,7-dihydro-1H-[1,2,3]triazolo[4,5-c]pyridin-5(4H)-yl)methanone]: the “PBMC 10 μM (% control)” value is on record as −0.1 % control.

Consider `C[C@H]1Cc2c(nnn2-c2ncc(F)cn2)CN1C(=O)c1ccc(F)c(Cl)c1Cl` (single isomer, unassigned) [Example 215, (6S*)-5-[(2,3-Dichloro-4-fluorophenyl)carbonyl]-1-(5-fluoropyrimidin-2-yl)-6-methyl-4,5,6,7-tetrahydro-1H-[1,2,3]triazolo[4,5-c]pyridine], for which the “PBMC 10 μM (% control)” value amounted to 2.7 % control.

For `CC1c2nnn(-c3cncnc3)c2C=CN1C(=O)c1cccc(C(F)(F)F)c1Cl` (stereo not shown) [Example 236, (2-Chloro-3-(trifluoromethyl)phenyl)(4-methyl-1-(pyrimidin-5-yl)-1H-[1,2,3]triazolo[4,5-c]pyridin-5(4H)-yl)methanone], the “PBMC 10 μM (% control)” value stood at 9.3 % control.

Turning to `C[C@@H]1c2nnn(-c3ccn(C)n3)c2CCN1C(=O)c1cccc(C(F)(F)F)c1Cl` (single isomer, unassigned) [Example 169, (R*)-(2-Chloro-3-(trifluoromethyl)phenyl)(4-methyl-1-(1-methyl-1H-pyrazol-3-yl)-6,7-dihydro-1H-[1,2,3]triazolo[4,5-c]pyridin-5(4H)-yl)methanone], the “PBMC 10 μM (% control)” value is on record as 95.0 % control.

With `C[C@@H]1Cc2c(nnn2-c2ccn[nH]2)[C@H](C)N1C(=O)c1cccc(C(F)(F)F)c1Cl` [Example 297, (2-chloro-3-(trifluoromethyl)phenyl)((4S,6R)-4,6-dimethyl-1-(1H-pyrazol-5-yl)-6,7-dihydro-1H-[1,2,3]triazolo[4,5-c]pyridin-5(4H)-yl)methanone], the “PBMC 10 μM (% control)” value worked out at 2.6 % control.

On to `Cc1cc(C)nc(-n2nnc3c2CCN(C(=O)c2cccc(C(F)(F)F)c2Cl)[C@@H]3C)n1` (single isomer, unassigned) [Example 181, (R*)-(2-chloro-3-(trifluoromethyl)phenyl)(1-(4,6-dimethylpyrimidin-2-yl)-4-methyl-6,7-dihydro-1H-[1,2,3]triazolo[4,5-c]pyridin-5(4H)-yl)methanone], for which the “PBMC 10 μM (% control)” value was −0.1 % control.

Still in this assay, the particulars now being: test compound 10 μM, LPS 30 ng/ml + 0.5 mM Bz-ATP.
Turning to `Cc1cc(C)nc(-n2nnc3c2CCN(C(=O)c2cccc(C(F)(F)F)c2Cl)[C@@H]3C)n1` (single isomer, unassigned) [Example 181, (R*)-(2-chloro-3-(trifluoromethyl)phenyl)(1-(4,6-dimethylpyrimidin-2-yl)-4-methyl-6,7-dihydro-1H-[1,2,3]triazolo[4,5-c]pyridin-5(4H)-yl)methanone], the “PBMC 10 μM (% control)” value is given as −0.1 % control.
